Laboratory results as given in patent EP4775575A1, “COMPOUND USED AS CDK4 KINASE INHIBITOR AND USE THEREOF” (TYK Medicines, Inc., priority 2023, dated 2025).

Columns and labels:
[1] = target: CDK4/CycD1 (Homo sapiens, UniProt P11802); test: Kinase activity assay (MSA, EZ Reader) against CDK4
[2] = system: human ovarian cancer cells A2780; test: Cell anti-proliferation assay (MTT), A2780; assay type: cell-based; conditions: Homo sapiens, 120 h, incubated for 5 days
Method: (§1) Human breast cancer cells MCF-7, human ovarian cancer cells A2780, human mantle cell lymphoma cells JEKO-1. DMEM medium (Bio-Channel), DMSO (dimethyl sulfoxide), MTT (thiazolyl blue), 0.25% EDTA-Trypsin (trypsin digestive solution), 1×PBS (phosphate buffered saline, pH 7.2), 96-well plate (Corning), fetal bovine serum (FBS), 10,000 U/mL penicillin-G/streptomycin, high-speed refrigerated centrifuge (EPPENDORF 5810R), and microplate reader (Tecan Spark).
(§2) • A) Tumor cells were cultured in DMEM (high glucose, containing 10% FBS and 100 U/mL penicillin-G/streptomycin) at 37 °C, 5% CO2 and saturated humidity until 80-90% confluence. • B) The medium in the 10 cm culture dish was removed. • C) Cells were rinsed once with 10 mL of 1×PBS. • D) 4 mL of 0.25% EDTA-Trypsin was added, and the cells were digested in a 37 °C, 5% CO2 incubator for 5 minutes. The mixture was transferred to a 15 mL centrifuge tube, centrifuged at 200 g for 5 minutes, and the supernatant was discarded to obtain cell pellet. • E) The cells were resuspended in 4 mL of DMEM medium, counted, and adjusted to 50,000 cells/mL. • F) 100 µL of cell suspension was added to each well of a 96-well plate, and the plate was incubated overnight at 37 °C in a 5% CO2 incubator.
(§3) • A) Gradient dilution solutions of the test compounds were prepared: the test compound was prepared into a 1 mM stock solution. Then 1.5 µL of the stock solution was dissolved in 1.5 mL of DMSO-free medium, followed by 3-fold serial gradient dilution with medium containing 0.1% DMSO to give 9 concentrations.
(§4) • A) The cell culture plate was taken out, and 10 µL of 5 mg/mL MTT was added in a biological safety cabinet; • B) The plate was returned to the incubator and incubated for another 3 hours; • C) The cell culture plate was taken out and the medium was removed, 100 µL of isopropanol (containing 0.4 mM HCl, 0.1% NP-40) was added, and the plate was shaken at room temperature for 30 minutes; • D) The absorbance at 570 nm was measured using a TECAN microplate reader.

[3] = system: human mantle cell lymphoma cells JEKO-1; test: Cell anti-proliferation assay (MTT), JEKO-1; assay type: cell-based; conditions: Homo sapiens, 120 h, JEKO-1 cells, incubated for 5 days
Method: as §1, §2, §3, §4

[4] = target: T1, CDK6/CyclinD3 (Homo sapiens, UniProt Q00534); test: Kinase activity assay (MSA, EZ Reader) against CDK6; assay type: biochemical; conditions: CDK6/CyclinD3 5.00 nM, ATP 350 µM, FL-Peptide34, 10mM MgCl2
T1 construct: purchased Carna 04-107
T1 sequence (Q00534 whole entry): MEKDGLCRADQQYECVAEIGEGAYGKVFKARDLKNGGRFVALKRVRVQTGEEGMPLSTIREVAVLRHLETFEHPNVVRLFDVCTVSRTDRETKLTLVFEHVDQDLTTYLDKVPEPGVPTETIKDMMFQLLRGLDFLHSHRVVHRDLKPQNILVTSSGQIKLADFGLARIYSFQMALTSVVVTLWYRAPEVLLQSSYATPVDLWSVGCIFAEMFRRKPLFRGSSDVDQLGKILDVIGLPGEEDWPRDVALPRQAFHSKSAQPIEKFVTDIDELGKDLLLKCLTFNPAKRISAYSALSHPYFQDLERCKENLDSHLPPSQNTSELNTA
T1 sequence (P30281 whole entry partner): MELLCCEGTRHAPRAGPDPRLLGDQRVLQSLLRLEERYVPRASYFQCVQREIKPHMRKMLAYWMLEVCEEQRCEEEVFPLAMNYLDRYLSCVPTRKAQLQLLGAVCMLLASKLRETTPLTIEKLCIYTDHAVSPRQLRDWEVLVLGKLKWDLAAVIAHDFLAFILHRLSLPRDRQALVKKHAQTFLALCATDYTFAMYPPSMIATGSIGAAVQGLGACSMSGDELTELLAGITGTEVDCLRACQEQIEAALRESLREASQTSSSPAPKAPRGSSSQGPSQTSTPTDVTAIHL

[5] = system: Human breast cancer cells MCF-7; test: Cell anti-proliferation assay (MTT), MCF-7; assay type: cell-based; conditions: Homo sapiens, MCF7, 120 h, MCF-7 cells, incubated for 5 days
Method: as §1, §2, §3, §4

Chain of CDK4/CycD1 (P11802 whole entry): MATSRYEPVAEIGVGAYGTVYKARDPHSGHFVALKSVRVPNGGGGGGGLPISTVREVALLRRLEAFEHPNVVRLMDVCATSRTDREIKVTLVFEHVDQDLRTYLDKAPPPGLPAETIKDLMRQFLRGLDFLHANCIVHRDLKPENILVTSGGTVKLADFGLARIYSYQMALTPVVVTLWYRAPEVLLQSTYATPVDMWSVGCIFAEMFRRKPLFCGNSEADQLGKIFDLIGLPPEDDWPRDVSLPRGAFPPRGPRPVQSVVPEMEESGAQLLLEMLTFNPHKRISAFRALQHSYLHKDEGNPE

Compound | IC50 [1] [nM] | IC50 [2] [nM] | IC50 [3] [nM] | IC50 [4] [nM] | IC50 [5] [nM]
C[C@H]1CCN(c2ccc(F)cc2F)c2nc3c(F)cc(-c4nc(N[C@@H]5CCOC[C@H]5O)ncc4Cl)cc3n21 [TC-13] | 3.3 | ≤ 500 | ≤ 500 | 74.4 | ≤ 500
CC(C)n1c(N2CCOC2=O)nc2c(F)cc(-c3nc(NC4CCN(S(C)(=O)=O)CC4)ncc3Cl)cc21 [TB-26] | 18.6 | ≤ 500 | ≤ 500 | 200 | ≤ 500
CC(C)n1c(N(C)C)nc2c(F)cc(-c3nc(NC4CCN(S(C)(=O)=O)CC4)ncc3Cl)cc21 [TB-3, 6-(5-chloro-2-((1-(methylsulfonyl)piperidin-4-yl)amino)pyrimidin-4-yl)-4-fluoro-1-isopropyl-N,N-dimethyl-1H-benzo[d]imidazol-2-amine] | 6.97 | ≤ 500 | ≤ 500 | 74.9 | ≤ 500
CC1(C)CSc2nc3c(F)cc(-c4nc(N[C@@H]5CCOC[C@H]5O)ncc4Cl)cc3n2C1 [TB-146] | 11.9 | ≤ 500 | ≤ 500 | 60.1 | ≤ 500
CC(C)n1c(N2CCOC2=O)nc2c(F)cc(-c3nc(NC4CCN(S(=O)(=O)C(C)C)CC4)ncc3Cl)cc21 [TB-32] | 12.3 | ≤ 500 | ≤ 500 | 145 | ≤ 500
CC(C)n1c(N(C)CCO)nc2c(F)cc(-c3nc(N[C@@H]4CCOC[C@H]4O)ncc3Cl)cc21 [TB-9, (3S,4R)-4-((5-chloro-4-(4-fluoro-2-((2-hydroxyethyl)(methyl)amino)-1-isopropyl-1H-benzo[d]imidazol-6-yl)pyrimidin-2-yl)amino)tetrahydro-2H-pyran-3-ol] | 40.1 | ≤ 500 | ≤ 500 | 223 | 500 to 2000
CC(C)n1c(N(C)C)nc2c(F)cc(-c3nc(NC4CCOCC4)ncc3Cl)cc21 [TB-2, 6-(5-chloro-2-((tetrahydro-2H-pyran-4-yl)amino)pyrimidin-4-yl)-4-fluoro-1-isopropyl-N,N-dimethyl-1H-benzo[d]imidazol-2-amine] | 18 | ≤ 500 | ≤ 500 | 319 | ≤ 500
CC(C)n1c(N(C)C)nc2c(F)cc(-c3nc(N[C@@H]4CCN(S(C)(=O)=O)C[C@H]4O)ncc3Cl)cc21 [TB-13, (3R,4R)-4-((5-chloro-4-(2-(dimethylamino)-4-fluoro-1-isopropyl-1H-benzo[d]imidazol-6-yl)pyrimidin-2-yl)amino)-1-(methylsulfonyl)piperidin-3-ol] | 1.27 | ≤ 500 | ≤ 500 | 18.6 | ≤ 500
CC(C)n1c(N2CC(O)C2)nc2c(F)cc(-c3nc(N[C@@H]4CCOC[C@H]4O)ncc3Cl)cc21 [TB-14, 1-(6-(5-chloro-2-(((3S,4R)-3-hydroxytetrahydro-2H-pyran-4-yl)amino)pyrimidin-4-yl)-4-fluoro-1-isopropyl-1H-benzo[d]imidazol-2-yl)azetidin-3-ol] | 6.37 | ≤ 500 | ≤ 500 | 235 | ≤ 500
CN1CCCn2c1nc1c(F)cc(-c3nc(Nc4ccc(C#N)cc4)ncc3Cl)cc12 [TB-133, 4-((5-chloro-4-(9-fluoro-1-methyl-1,2,3,4-tetrahydrobenzo[4,5]imidazo[1,2-a]pyrimidin-7-yl)pyrimidin-2-yl)amino)benzonitrile] | 17.9 | ≤ 500 | ≤ 500 | 64.8 | ≤ 500
CC(C)n1c(N2CC[C@@H](O)C2)nc2c(F)cc(-c3nc(N[C@@H]4CCOC[C@H]4O)ncc3Cl)cc21 [TB-7, (R)-1-(6-(5-chloro-2-(((3S,4R)-3-hydroxytetrahydro-2H-pyran-4-yl)amino)pyrimidin-4-yl)-4-fluoro-1-isopropyl-1H-benzo[d]imidazol-2-yl)pyrrolidin-3-ol] | 2.94 | ≤ 500 | ≤ 500 | 113 | ≤ 500
C[C@H]1CCN(c2ccc(C#N)cc2)c2nc3c(F)cc(-c4nc(N[C@@H]5CCOC[C@H]5O)ncc4Cl)cc3n21 [TC-17] | 4.5 | ≤ 500 | ≤ 500 | > 500 | ≤ 500
CC(C)n1c(N(C)C)nc2c(F)cc(-c3nc(N[C@@H]4CCOC[C@H]4O)ncc3Cl)cc21 [TB-1] | 3.7 | ≤ 500 | ≤ 500 | 67.8 | ≤ 500
CC1CCN(C)c2nc3c(F)cc(-c4nc(NC5CCN(S(C)(=O)=O)CC5)ncc4Cl)cc3n21 (stereo not shown) [TB-51, 5-chloro-4-(9-fluoro-1,4-dimethyl-1,2,3,4-tetrahydrobenzo[4,5]imidazo[1,2-a]pyrimidin-7-yl)-N-(1-(methylsulfonyl)piperidin-4-yl)pyrimidin-2-amine] | 2.23 | ≤ 500 | ≤ 500 | 27.6 | ≤ 500
C[C@H]1CCN(CC(C)(C)O)c2nc3c(F)cc(-c4nc(N[C@@H]5CCOC[C@H]5O)ncc4Cl)cc3n21 [TC-7] | 3.7 | ≤ 500 | ≤ 500 | 154 | ≤ 500
CC(C)n1c(N2CCOC2=O)nc2c(F)cc(-c3nc(NC4CCN(S(C)(=O)=O)CC4)ncc3F)cc21 [TB-28] | 8.57 | ≤ 500 | ≤ 500 | 154 | ≤ 500
COc1cc(N2CCNCC2)ccc1Nc1ncc(Cl)c(-c2cc(F)c3nc(N(C)C)n(C(C)C)c3c2)n1 [TB-17, 6-(5-chloro-2-((2-methoxy-4-(piperazin-1-yl)phenyl)amino)pyrimidin-4-yl)-4-fluoro-1-isopropyl-N,N-dimethyl-1H-benzo[d]imidazol-2-amine] | 33.8 | 500 to 2000 | 500 to 2000 | 297 | 500 to 2000
CC(C)n1c(N2CCOC2=O)nc2c(F)cc(-c3nc(NC4CCN(S(=O)(=O)C5CC5)CC4)ncc3Cl)cc21 [TB-33] | 8.37 | ≤ 500 | ≤ 500 | 61.7 | ≤ 500
CC(C)n1c(N2CCOC2=O)nc2c(F)cc(-c3nc(Nc4ccc(S(=O)(=O)NCCN(C)C)cc4)ncc3Cl)cc21 [TB-38, 4-((5-chloro-4-(4-fluoro-1-isopropyl-2-(2-oxooxazolidin-3-yl)-1H-benzo[d]imidazol-6-yl)pyrimidin-2-yl)amino)-N-(2-(dimethylamino)ethyl)benzenesulfonamide] | 18.5 | ≤ 500 | ≤ 500 | 76.6 | ≤ 500
CCN1CCN(Cc2ccc(Nc3ncc(Cl)c(-c4cc(F)c5nc(N(C)C)n(C(C)C)c5c4)n3)nc2)CC1 [TB-16] | 6.92 | ≤ 500 | ≤ 500 | 44.6 | ≤ 500
CC(C)n1c(N(C)C)nc2c(F)cc(-c3nc(Nc4ccc(N5CCNCC5)cn4)ncc3Cl)cc21 [TB-18, 6-(5-chloro-2-((5-(piperazin-1-yl)pyridin-2-yl)amino)pyrimidin-4-yl)-4-fluoro-1-isopropyl-N,N-dimethyl-1H-benzo[d]imidazol-2-amine] | 2.6 | ≤ 500 | ≤ 500 | 13.7 | ≤ 500
CC(C)n1c(N(C)C)nc2c(F)cc(-c3nc(N[C@H]4CC[C@H](NS(C)(=O)=O)CC4)ncc3Cl)cc21 [TB-5] | 4.24 | ≤ 500 | ≤ 500 | 71.6 | ≤ 500
CNS(=O)(=O)c1ccc(Nc2ncc(Cl)c(-c3cc(F)c4nc5n(c4c3)C(C)CCN5C)n2)cc1 (stereo not shown) [TB-53, 4-((5-chloro-4-(9-fluoro-1,4-dimethyl-1,2,3,4-tetrahydrobenzo[4,5]imidazo[1,2-a]pyrimidin-7-yl)pyrimidin-2-yl)amino)-N-methylbenzenesulfonamide] | 10.6 | ≤ 500 | ≤ 500 | 56.9 | ≤ 500
